# In EPA's ToxRefDB 2:
# Assays:
# rat [1] = conditions: Other (NonGuideline or Guideline Not Listed), sprague dawley, Oral, Gavage/Intubation, dose end: 7 day, group: cannot be grouped
# mouse [2] = conditions: Subchronic oral toxicity in rodents, b6c3f1, Feed, dose end: 8 week, group: systemic
# mouse [3] = conditions: Carcinogenicity, b6c3f1, Oral, Feed, dose end: 78 week, group: systemic
# rat [4] = conditions: Subchronic oral toxicity in rodents, fischer, Feed, dose end: 8 week, group: systemic
# rat [5] = conditions: Carcinogenicity, fischer, Oral, Feed, dose end: 78 week, group: systemic
# mouse [6] = conditions: Carcinogenicity, b6c3f1, Oral, Feed, dose end: 2 year, group: systemic
# mouse [7] = conditions: Subchronic oral toxicity in rodents, b6c3f1, Feed, dose end: 13 week, group: systemic, systemic / in life observation / body weight / body weight + systemic / in life observation / food consumption / food consumption
# rat [8] = conditions: Combined chronic toxicity/carcinogenicity, fischer, Oral, Feed, dose end: 2 year, group: systemic
# rat [9] = conditions: Subchronic oral toxicity in rodents, fischer, Feed, dose end: 13 week, group: systemic
# [10] = systemic / clinical chemistry / alanine aminotransferase (alt/sgpt) / alanine aminotransferase (alt/sgpt) + systemic / clinical chemistry / …
# [11] = systemic / in life observation / body weight / body weight gain + systemic / in life observation / clinical signs / defecation + systemic / …
# [12] = systemic / in life observation / body weight / body weight
# [13] = systemic / in life observation / body weight / body weight + systemic / in life observation / mortality / mortality
# [14] = systemic / in life observation / body weight / body weight + systemic / pathology microscopic / gallbladder / hyperplasia
# [15] = systemic / in life observation / body weight / body weight + systemic / pathology microscopic / gallbladder / hyperplasia + systemic / …
# [16] = systemic / in life observation / body weight / body weight + systemic / pathology microscopic / urinary bladder / carcinoma + systemic / …
# [17] = systemic / in life observation / body weight / body weight + systemic / in life observation / food consumption / food consumption
# [18] = systemic / in life observation / food consumption / food consumption
# [19] = systemic / in life observation / food consumption / food consumption + systemic / pathology microscopic / lung / adenoma/carcinoma combined…
compound,measurement,setting,value
CCOc1cccc(-n2cc(C(=O)N3CCN(c4cc(C(=O)[O-])c5ccccc5c4)CC3)nc2-c2ccc(C)cc2)c1.[Na+],LOAEL,rat [1]; [10],> 500 mg/kg/day
same,NOAEL,rat [1]; [10],≥ 500 mg/kg/day
same,LEL,rat [1]; [11],10 mg/kg/day
same,NEL,rat [1]; [11],< 10 mg/kg/day
"Nc1ccc(Cl)cc1N [4-Chloro-1,2-diaminobenzene]",LEL,mouse [2]; [12],1500 mg/kg/day
same,LOAEL,mouse [2]; [12],1500 mg/kg/day
same,NEL,mouse [2]; [13],150 mg/kg/day
same,NOAEL,mouse [2]; [13],150 mg/kg/day
same,LOAEL,mouse [3]; [14],1050 mg/kg/day
same,NOAEL,mouse [3]; [14],< 1050 mg/kg/day
same,LEL,mouse [3]; [15],1050 mg/kg/day
same,NEL,mouse [3]; [15],< 1050 mg/kg/day
same,LEL,rat [4]; [12],500 mg/kg/day
same,LOAEL,rat [4]; [12],500 mg/kg/day
same,NEL,rat [4]; [13],50 mg/kg/day
same,NOAEL,rat [4]; [13],50 mg/kg/day
same,LOAEL,rat [5]; [12],250 mg/kg/day
same,NOAEL,rat [5]; [12],< 250 mg/kg/day
same,LEL,rat [5]; [16],250 mg/kg/day
same,NEL,rat [5]; [16],< 250 mg/kg/day
Oc1cccc2cccnc12 [8-Hydroxyquinoline],LOAEL,mouse [6]; [17],> 396 mg/kg/day
same,NOAEL,mouse [6]; [17],≥ 396 mg/kg/day
same,LEL,mouse [6]; [18],217 mg/kg/day
same,NEL,mouse [6]; [18],< 217 mg/kg/day
same,LEL,mouse [7],900 mg/kg/day
same,LOAEL,mouse [7],900 mg/kg/day
same,NEL,mouse [7],450 mg/kg/day
same,NOAEL,mouse [7],450 mg/kg/day
same,LEL,rat [8]; [18],73 mg/kg/day
same,NEL,rat [8]; [18],< 73 mg/kg/day
same,LOAEL,rat [8]; [19],> 143 mg/kg/day
same,NOAEL,rat [8]; [19],≥ 143 mg/kg/day
same,LOAEL,rat [9]; [17],300 mg/kg/day
same,NEL,rat [9]; [17],75 mg/kg/day
same,NOAEL,rat [9]; [17],150 mg/kg/day
same,LEL,rat [9]; [18],150 mg/kg/day
